The subject of this assay is ACE. The assay can be described thus: Determination of ACE inhibitory activity (HHL substrate, hippuric acid measured by HPLC). It is filed as biochemical. To be noted: for IC50: ACE inhibition, IC50 found from the inhibition rate vs concentration curve. The method, then: (2) Determination Method of ACE Inhibitory Activity
10 μL of ACE solution (0.25 U/mL, ACE enzyme was dissolved into pH 7 potassium phosphate buffer) was respectively added into a sample tube (B) and a blank tube (A), 10 μL of ACEI was added into the sample tube, 10 μL of buffer was added into the blank tube, samples were incubated for 5 min at 37° C., then 30 μL of HHL solution ([…], HHL was dissolved into pH 8.3 0.1 mol·L^−1 borate buffer, containing 0.3 mol·L^−1 NaCl) was added, the above materials reacted for 1 h at 37° C., and then 80 μL of 1.0 mol/L HCl was added to terminate the reaction, so as to obtain a reaction solution, seen in Table 2.
Mobile phase and chromatographic conditions: acetonitrile: ultrapure water=25:75 (including 0.1% (V/V) TFA), flow rate: 1 mL/min; detection wavelength: 228 nm; column temperature: 30° C.; injection volume: 20 μL.
Principle: HHL was rapidly decomposed under the catalysis of ACE to produce hippuric acid (Hip) and dipeptide (His-Leu, HL). Hippuric acid has the maximum absorption at 228 nm. When ACEI samples were added, the activity of the ACE enzyme was inhibited and the production amount of hippuric acid was reduced. Therefore, the inhibition rate of ACEI on ACE activity can be evaluated by measuring the production amount of hippuric acid by HPLC.
In the formula, R: an inhibition rate (%) of ACEI sample on ACE; • A: a peak area of hippuric acid in control group • B: a peak area of hippuric acid in ACEI addition group • A0: a peak area of hippuric acid in blank group
Where, IC50 is defined as a concentration of an inhibitor required when a half of ACE enzyme activity is inhibited under certain conditions. There was no a linear relationship between the inhibition rate and the concentration of the formulation, and therefore a curve of a relationship between the inhibition rate and the concentration of the formulation was firstly plotted, and then IC50 was found out from the curve. […]

These results are taken from patent publication US20250263434A1, “OLIGOPEPTIDE HAVING BLOOD PRESSURE REDUCING EFFECT, AND PREPARATION METHOD THEREFOR AND APPLICATION THEREOF” (South China Agricultural University, priority 2020, published 2025).

As a reminder, the IC50 is the concentration that inhibits the measured activity by half. The low end stands for higher potency, the high end for lower potency.

In turn, “LIIPEH [Artificially synthesized monomer H6, Leu-Ile-Ile-Pro-Glu-His, Synthesized LIIPEH by Shanghai jiepeptide Biotechnology Co., Ltd]” gave an IC50 of 56.67 ± 12.02 µg/mL.
Take “LIIPEH [RP-HCLP separated monomer H6, Leu-Ile-Ile-Pro-Glu-His, Oligopeptide LIIPEH separated and purified from rice wine lees]”: for the setting “listed as oligopeptide”, the IC50 amounted to 280.00 ± 5.77 µg/mL. Moreover, for the setting “concentration of the sample 1 mg/mL”, the “inhibition rate on ACE” value is 91.72%.
